# Measured values reported in patent US7662820B2, “Dipterinyl calcium pentahydrate (DCP) and therapeutic methods based thereon” (SanRX Pharmaceuticals, Inc., priority 2006, dated 2010).
# Key:
# [1] = nude mice treated with DCP, FIG. 3
# Description: Twenty-nine athymic nude were each injected subcutaneously with 10×10^6 MDA-MB-231 cancer cells into the right flank. When tumors reached 3-5 mm in size, the mice were divided into five treatment groups of five each and a control group of four mice. Four of these with outlying tumor sizes or non-tumor takes were excluded shortly after treatment began: one each from the (1:4 mol:mol) calcium pterin group, the (1:2 mol:mol) calcium pterin group, the DCP (69 mg/kg/day) group, and one from the control group. Experimental groups were treated by oral gavage once daily with the indicated test suspensions or solutions. Control groups were untreated. Daily dosing was for 7 days per week. Animals were restrained but not anesthetized for oral dosing. Tumors were measured twice weekly with calipers and body weights taken twice weekly on the day of tumor measurements. Blood was collected from all animals via cardiac puncture at termination (after 70 to 98 days of treatment) and processed to EDTA plasma for analysis.
# [2] = system: MDA-MB-231 human tumor xenographs; experiment: Antitumor efficacy in nude mice with MDA-MB-231 human tumor xenographs; format: in vivo, athymic nude (nu/nu) mice; conditions: for anti tumor efficacy compared with original CaPterin, (1:4 mol:mol) calcium pterin / inhibition of MDA-MB-231 xenograph growth (Relative Tumor Volume): oral gavage once daily, FIG. 1; for inhibition of MDA-MB-231 xenograph growth (Relative Tumor Volume): nude mice, versus untreated control
# Description: FIGS. 1A and 1B (with SEMs): Twenty-nine athymic nude (nu/nu) female mice, ages 3-4 weeks, were inoculated with 10×10^6 MDA-MB-231 cancer cells subcutaneously into the right flank of each mouse. […] Four mice were assigned as controls. Four mice with outlying tumor sizes or non-tumor takes were subsequently excluded. […] The control group was untreated.
# Cell Line Propagation and Inoculation: The MDA-MB-231 human breast tumor cell lines were supplied by SRI International (Menlo Park, Calif.) and propagated using standard in vitro cell expansion methods. Briefly, cells were grown in L-15 media from Gibco (Cat. No. 11415-064) supplemented with 2 mM L-Glutamine and 10% Fetal Bovine Serum (FBS). The cells were cultured in an incubator with 5% C02, 37.50C, and 80% humidity. Cells were harvested with 0.25% (w/v) Trypsin-0.03% (w/v) EDTA solution. Cells were prepared for injection by standard methods to appropriate concentrations. Animals were temporarily restrained but not anesthetized for the inoculation of the tumor cells. Animals were subcutaneously injected with the tumor cells in a 100-200 μl volume.
# Control groups were untreated. Daily dosing was for 7 days per week. Animals were restrained but not anesthetized for oral dosing.
# Tumor Growth Rate Measurements: Each animal was individually tracked for tumor growth by external caliper measurements of protruding tumor. Primary tumor sizes were measured using calipers and an approximate tumor volume calculated using the formula 1/2 (a×b2), where b was the smaller of two perpendicular diameters.
# For each group, the mean and standard error of the mean (SEM) of the ratio V/Vo, Relative Tumor Volume (RTV), were plotted as a function of treatment time after inoculation. V0 was the tumor volume at Day 0, when treatment began. Time course statistical analyses based upon repeated measures ANOVA models were used (StatView SE+Graphics, v 1.03).
# tumor = conditions: in vivo; cited from earlier work
# sarcoma = conditions: mice; cited from earlier work
structure (smiles),measurement,setting,value
"Nc1nc([O-])c2nccnc2n1.Nc1nc([O-])c2nccnc2n1.[Ca+2] [DCP, dipterinyl calcium pentahydrate]",weight loss,[1],no significant weight loss
same,"anti tumor efficacy compared with original CaPterin, (1:4 mol:mol) calcium pterin",[2]; DCP at 23 mg/kg/day,significantly greater anti tumor efficacy
same,"anti tumor efficacy compared with original CaPterin, (1:4 mol:mol) calcium pterin",[2]; DCP at 69 mg/kg/day,comparable efficacy
same,inhibition of MDA-MB-231 xenograph growth (Relative Tumor Volume),[2],significantly inhibit
same,inhibition of MDA-MB-231 xenograph tumors compared with (1:4 mol:mol) calcium pterin [CaPterin],"[2]; oral, dose not stated (conclusion)",significantly greater
Nc1nc2[nH]c(=O)cnc2c(=O)[nH]1 [Isoxanthopterin],tumor growth,tumor,inhibit tumor growth
Nc1nc(=O)c2[nH]c(=O)cnc2[nH]1 [Xanthopterin],sarcoma growth,sarcoma,inhibit sarcoma growth
"O.O.[Ca+2].[Cl-].[Cl-] [calcium chloride dihydrate, reference compound]",inhibition of MDA-MB-231 xenograph growth (Relative Tumor Volume),[2],significantly inhibit
